Values after ≈ are worked out from the molar mass of the structure shown.
Legend:
Trichophyton benhamiae = assay: Minimum inhibitory concentration against Trichophyton mentagrophytes; format: functional, Arthroderma benhamiae
Arthroderma uncinatum = assay: Minimum inhibitory concentration against Trichophyton ajelloi; format: functional
Pseudomonas aeruginosa = assay: Minimum inhibitory concentration against Pseudomonas aeruginosae ATCC 27853; format: functional
Aspergillus niger = assay: Minimum inhibitory concentration against Aspergillus niger; format: functional
Escherichia coli = assay: Minimum inhibitory concentration against Escherichia coli ATCC 25853; format: functional
Candida albicans = assay: Minimum inhibitory concentration against Candida albicans ATCC 10231; format: functional
Enterococcus faecalis = assay: Minimum inhibitory concentration against Streptococcus faecalis ATCC 29212; format: functional
Aspergillus flavus = assay: Minimum inhibitory concentration against Aspergillus flavus; format: functional
Staphylococcus aureus = assay: Minimum inhibitory concentration Staphylococcus aureus ATCC 29213; format: functional
Paraphyton cookei = assay: Minimum inhibitory concentration against Microsporum cookei; format: functional
Nannizzia gypsea = assay: Minimum inhibitory concentration Microsporum gypseum; format: functional
Nannizzia nana = assay: Minimum inhibitory concentration against Microsporum nanum; format: functional

Compound	MIC (Trichophyton benhamiae) [µg/mL]	MIC (Arthroderma uncinatum) [µg/mL]	MIC (Pseudomonas aeruginosa) [µg/mL]	MIC (Aspergillus niger) [µg/mL]	MIC (Escherichia coli) [µg/mL]	MIC (Candida albicans) [µg/mL]	MIC (Enterococcus faecalis) [µg/mL]	MIC (Aspergillus flavus) [µg/mL]	MIC (Staphylococcus aureus) [µg/mL]	MIC (Paraphyton cookei) [µg/mL]	MIC (Nannizzia gypsea) [µg/mL]	MIC (Nannizzia nana) [µg/mL]
CCOC(=O)c1ccc(/N=C(\S)Nc2ccc(/N=C(\S)Nc3ccc(C(=O)OCC)cc3)cc2)cc1	512 (≈ 980 µM)	256 (≈ 490 µM)	512 (≈ 980 µM)	≥ 512	> 512	> 512	512 (≈ 980 µM)	≥ 512	> 512	128 (≈ 245 µM)	> 512	128 (≈ 245 µM)
O=C(O)c1ccc(/N=C(\S)Nc2cccc(/N=C(/S)Nc3ccc(C(=O)O)cc3)c2)cc1	64 (≈ 137 µM)	64 (≈ 137 µM)	512 (≈ 1100 µM)	≥ 512	> 512	> 512	512 (≈ 1100 µM)	≥ 512	256 (≈ 549 µM)	32 (≈ 68.6 µM)	64 (≈ 137 µM)	64 (≈ 137 µM)
COC(=O)c1ccc(/N=C(\S)Nc2cccc(/N=C(/S)Nc3ccc(C(=O)OC)c(O)c3)c2)cc1O	64 (≈ 122 µM)	128 (≈ 243 µM)	> 512	≥ 512	512 (≈ 972 µM)	512 (≈ 972 µM)	> 512	≥ 512	256 (≈ 486 µM)	32 (≈ 60.8 µM)	64 (≈ 122 µM)	32 (≈ 60.8 µM)
CC(C)OC(=O)c1ccc(/N=C(\S)Nc2ccc(/N=C(\S)Nc3ccc(C(=O)OC(C)C)cc3)cc2)cc1	64 (≈ 116 µM)	64 (≈ 116 µM)	512 (≈ 930 µM)	≥ 512	> 512	> 512	512 (≈ 930 µM)	≥ 512	> 512	64 (≈ 116 µM)	32 (≈ 58.1 µM)	64 (≈ 116 µM)
COC(=O)c1ccc(/N=C(\S)Nc2ccc(/N=C(\S)Nc3ccc(C(=O)OC)cc3)cc2)cc1	32 (≈ 64.7 µM)	128 (≈ 259 µM)	512 (≈ 1040 µM)	≥ 512	> 512	> 512	512 (≈ 1040 µM)	≥ 512	> 512	128 (≈ 259 µM)	256 (≈ 518 µM)	32 (≈ 64.7 µM)
CC(C)OC(=O)c1ccc(/N=C(\S)Nc2cccc(/N=C(/S)Nc3ccc(C(=O)OC(C)C)c(O)c3)c2)cc1O	16 (≈ 27.5 µM)	32 (≈ 54.9 µM)	> 512	≥ 512	512 (≈ 879 µM)	> 512	> 512	≥ 512	256 (≈ 439 µM)	32 (≈ 54.9 µM)	32 (≈ 54.9 µM)	32 (≈ 54.9 µM)

The next lines start with the values.

MIC (Trichophyton benhamiae) [µg/mL]	MIC (Arthroderma uncinatum) [µg/mL]	MIC (Pseudomonas aeruginosa) [µg/mL]	MIC (Aspergillus niger) [µg/mL]	MIC (Escherichia coli) [µg/mL]	MIC (Candida albicans) [µg/mL]	MIC (Enterococcus faecalis) [µg/mL]	MIC (Aspergillus flavus) [µg/mL]	MIC (Staphylococcus aureus) [µg/mL]	MIC (Paraphyton cookei) [µg/mL]	MIC (Nannizzia gypsea) [µg/mL]	MIC (Nannizzia nana) [µg/mL]	Compound
> 512	128 (≈ 220 µM)	512 (≈ 879 µM)	≥ 512	> 512	> 512	512 (≈ 879 µM)	≥ 512	> 512	128 (≈ 220 µM)	256 (≈ 439 µM)	128 (≈ 220 µM)	CC(C)OC(=O)c1ccc(/N=C(\S)Nc2ccc(/N=C(/S)Nc3ccc(C(=O)OC(C)C)c(O)c3)cc2)cc1O
64 (≈ 122 µM)	32 (≈ 60.8 µM)	512 (≈ 972 µM)	≥ 512	> 512	> 512	512 (≈ 972 µM)	≥ 512	> 512	64 (≈ 122 µM)	16 (≈ 30.4 µM)	32 (≈ 60.8 µM)	COC(=O)c1ccc(/N=C(\S)Nc2ccc(/N=C(/S)Nc3ccc(C(=O)OC)c(O)c3)cc2)cc1O
128 (≈ 257 µM)	128 (≈ 257 µM)	512 (≈ 1030 µM)	≥ 512	> 512	256 (≈ 513 µM)	512 (≈ 1030 µM)	≥ 512	> 512	128 (≈ 257 µM)	128 (≈ 257 µM)	64 (≈ 128 µM)	O=C(O)c1ccc(/N=C(\S)Nc2ccc(/N=C(/S)Nc3ccc(C(=O)O)c(O)c3)cc2)cc1O
32 (≈ 57.7 µM)	32 (≈ 57.7 µM)	> 512	≥ 512	512 (≈ 923 µM)	> 512	> 512	≥ 512	256 (≈ 462 µM)	64 (≈ 115 µM)	32 (≈ 57.7 µM)	32 (≈ 57.7 µM)	CCOC(=O)c1ccc(/N=C(\S)Nc2cccc(/N=C(/S)Nc3ccc(C(=O)OCC)c(O)c3)c2)cc1O
> 512	> 512	512 (≈ 923 µM)	≥ 512	> 512	> 512	512 (≈ 923 µM)	≥ 512	> 512	256 (≈ 462 µM)	256 (≈ 462 µM)	128 (≈ 231 µM)	CCOC(=O)c1ccc(/N=C(\S)Nc2ccc(/N=C(/S)Nc3ccc(C(=O)OCC)c(O)c3)cc2)cc1O

Source: ChEMBL document CHEMBL1147423, “Synthesis and antifungal activities of phenylenedithioureas” (2004)
